Measured values as given in patent publication US20080287477A1, “Novel Compounds as Modulators of Ppar” (KALYPSYS, INC., priority 2006, published 2008).

What was measured:
Assay type in all cases: cell-based, murine and human
Conditions in all cases: 20-24 hours treatment
[1] = target: T1, PPAR-alpha (UniProt Q07869); assay: Transient transfection transactivation assay in CV-1 cells, GAL4-PPAR-alpha chimera, luciferase reporter
T1 sequence (Q07869 1-468): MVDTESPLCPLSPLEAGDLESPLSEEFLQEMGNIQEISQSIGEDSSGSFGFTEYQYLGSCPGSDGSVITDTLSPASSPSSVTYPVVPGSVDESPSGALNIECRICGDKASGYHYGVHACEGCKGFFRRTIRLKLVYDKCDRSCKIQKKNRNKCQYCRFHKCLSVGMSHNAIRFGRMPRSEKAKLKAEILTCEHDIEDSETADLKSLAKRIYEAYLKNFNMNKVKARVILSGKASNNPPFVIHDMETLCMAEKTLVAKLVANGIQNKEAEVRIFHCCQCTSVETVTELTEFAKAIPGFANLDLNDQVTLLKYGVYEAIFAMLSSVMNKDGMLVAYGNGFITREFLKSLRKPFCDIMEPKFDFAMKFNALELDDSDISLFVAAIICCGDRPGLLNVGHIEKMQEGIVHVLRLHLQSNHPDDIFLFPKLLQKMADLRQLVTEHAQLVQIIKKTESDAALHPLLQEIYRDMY
Text: (§1) Compounds may be screened for functional potency in transient transfection assays in CV-1 cells for their ability to activate the PPAR subtypes (transactivation assay). A previously established chimeric receptor system was utilized to allow comparison of the relative transcriptional activity of the receptor subtypes on the same synthetic response element and to prevent endogenous receptor activation from complicating the interpretation of results. See, for example, Lehmann, J. M.; Moore, L. B.; Smith-Oliver, T. A: Wilkinson, W. O.; Willson, T. M.; Kliewer, S. A., An antidiabetic thiazolidinedione is a high affinity ligand for peroxisome proliferator-activated receptor […], J. Biol. Chem., 1995, 270, 12953-6. The ligand binding domains for murine and human PPAR-alpha, PPAR-gamma, and PPAR-delta are each fused to the yeast transcription factor GAL4 DNA binding domain. CV-1 cells were transiently transfected with expression vectors for the respective PPAR chimera along with a reporter construct containing four or five copies of the GAL4 DNA binding site driving expression of luciferase. After 8-16 h, the cells are replated into multi-well assay plates and the media is exchanged to phenol-red free DME medium supplemented with 5% delipidated coif serum. 4 hours after replating, cells were treated with either compounds or 1% DMSO for 20-24 hours. Luciferase activity was then assayed with Britelite (Perkin Elmer) following the manufacturer's protocol and measured with either the Perkin Elmer Viewlux or Molecular Devices Acquost (see, for example. Kliewer, S. A., et. al. Cell 1995, 83, 813-819). Rosiglitazone is used as a positive control in the PPARγ assay. Wy-14643 and GW7647 is used as a positive control in the […]. GW50156 is used as the positive control in the PPARδ assay.
Examples 1-20 were assayed to measure their biological activity with respect to their efficacy for modulating PPAR-alpha, PPAR-gamma, and PPAR-delta. EC50 values are set forth below in Table 1.

[2] = target: T2, PPAR-gamma (UniProt P37231); assay: Transient transfection transactivation assay in CV-1 cells, GAL4-PPAR-gamma chimera, luciferase reporter
T2 sequence (P37231 1-505): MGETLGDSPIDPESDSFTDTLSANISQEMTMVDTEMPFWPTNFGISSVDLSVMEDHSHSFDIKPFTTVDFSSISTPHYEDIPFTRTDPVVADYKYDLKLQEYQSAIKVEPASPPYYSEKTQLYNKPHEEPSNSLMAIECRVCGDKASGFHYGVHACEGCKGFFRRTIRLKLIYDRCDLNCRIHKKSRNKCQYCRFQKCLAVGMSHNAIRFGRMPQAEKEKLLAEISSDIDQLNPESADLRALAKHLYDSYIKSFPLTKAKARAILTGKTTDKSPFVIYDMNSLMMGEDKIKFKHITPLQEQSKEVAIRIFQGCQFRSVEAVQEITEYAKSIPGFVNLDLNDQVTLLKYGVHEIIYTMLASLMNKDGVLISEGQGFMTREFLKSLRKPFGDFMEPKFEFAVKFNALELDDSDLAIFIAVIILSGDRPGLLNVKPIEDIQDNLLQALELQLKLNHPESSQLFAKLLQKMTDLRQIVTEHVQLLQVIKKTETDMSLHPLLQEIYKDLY
Text: as §1
(§2) EC50 values are set forth below in Table 1.

[3] = target: T3, PPAR-delta (UniProt Q03181); assay: Transient transfection transactivation assay in CV-1 cells, GAL4-PPAR-delta chimera, luciferase reporter
T3 sequence (Q03181 1-441): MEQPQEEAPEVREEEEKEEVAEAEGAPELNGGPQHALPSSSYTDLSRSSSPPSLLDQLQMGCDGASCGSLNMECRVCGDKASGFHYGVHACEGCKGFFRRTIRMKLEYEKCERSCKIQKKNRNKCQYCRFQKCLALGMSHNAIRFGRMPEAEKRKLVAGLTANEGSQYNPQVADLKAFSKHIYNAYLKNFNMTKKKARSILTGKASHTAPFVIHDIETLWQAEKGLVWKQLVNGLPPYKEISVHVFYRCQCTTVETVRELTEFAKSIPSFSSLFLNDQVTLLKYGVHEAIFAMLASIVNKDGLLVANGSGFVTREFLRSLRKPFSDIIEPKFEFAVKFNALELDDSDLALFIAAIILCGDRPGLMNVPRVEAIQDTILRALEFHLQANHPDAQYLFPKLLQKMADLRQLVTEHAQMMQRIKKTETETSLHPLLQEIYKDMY
Text: as §1, §2

Row | SMILES | EC50 [1] [µM] | EC50 [2] [µM] | EC50 [3] [µM]
1 | CCc1cnc(N(CCNS(=O)(=O)c2cccc3c2CC(C(=O)O)C3)Cc2ccc(OC(F)(F)F)cc2)nc1 (stereo not drawn) [Example 1, 4-{2-[(5-Ethyl-pyrimidin-2-yl)-(4-trifluoromethoxy-benzyl}-amino]-ethylsulfamoyl)-indan-2-carboxylic acid] | < 5 | < 5 | < 5
2 | CCc1cnc(N(CCNS(=O)(=O)c2cc(C)cc(CC(=O)O)c2)Cc2ccc(OC(F)(F)F)cc2)nc1 [Example 2, (3-{2-[(Ethyl-pyrimidin-2-yl)-(4-trifluoromethoxy-benzyl)-amino]-ethylsulfamoyl)-5-methyl-phenyl)-acetic acid] | < 5 | < 5 | < 5
3 | CCCCCN(CCNS(=O)(=O)c1cccc2c1CC(C(=O)O)C2)Cc1ccc(OC(F)(F)F)cc1 (stereo not drawn) [Example 3, 4-{2-[Pentyl-(4-trifluoromethoxy-benzyl)-amino]-ethylsulfamoyl}-indan-2-carboxylic acid] | < 5 | < 5 | < 5
4 | CCCCCN(CCNS(=O)(=O)c1cc(C)cc(CC(=O)O)c1)Cc1ccc(OC(F)(F)F)cc1 [Example 4] | < 5 | < 5 | < 5
5 | CCN(CCNS(=O)(=O)c1cc(C)cc(CC(=O)O)c1)Cc1ccc(OC(F)(F)F)cc1 [Example 5, (3-{2-[Ethyl-(4-trifluoromethoxy-benzyl}-amino]-ethylsulfamoyl)-5-methyl-phenyl)-acetic acid] | 5 to 100 | < 5 | < 5
6 | CCCCN(CCNS(=O)(=O)c1cc(C)cc(CC(=O)O)c1)Cc1ccc(OC(F)(F)F)cc1 [Example 6, (3-{2-[Butyl-(4-trifluoromethoxy-benzyl)-amino]-ethylsulfamoyl}-5-methyl-phenyl)-acetic acid] | < 5 | < 5 | < 5
7 | CCCCN(CCNS(=O)(=O)c1cccc2c1CC(C(=O)O)C2)Cc1ccc(OC(F)(F)F)cc1 (stereo not drawn) [Example 7, 4-{2-[Butyl-(4-trifluoromethoxy-benzyl)-amino]-ethylsulfamoyl}-indan-2-carboxylic acid] | < 5 | < 5 | < 5
8 | CCN(CCNS(=O)(=O)c1cccc2c1CC(C(=O)O)C2)Cc1ccc(OC(F)(F)F)cc1 (stereo not drawn) [Example 8] | < 5 | < 5 | < 5
9 | CCCc1c(OCCN(C)S(=O)(=O)c2cccc3c2CC(C(=O)O)C3)ccc(C(C)=O)c1O (stereo not drawn) [Example 9, 4-(N-(2-(4-Acetyl-3-hydroxy-2-propylphenoxy)ethyl)-N-methylsulfamoyl)-2,3-dihydro-1H-indene-2-carboxylic acid] | > 100 | < 5 | < 5
10 | CCCc1c(OCCN(C)S(=O)(=O)c2ccc3c(c2)C(C(=O)O)CC3)ccc(C(C)=O)c1O (stereo not drawn) [Example 10, 6-(N-(2-(4-Acetyl-3-hydroxy-2-propylphenoxy)ethyl)-N-methylsulfamoyl)-2-dihydro-1H-indene-1-carboxylic acid] | < 5 | < 5 | < 5
11 | CCCc1c(OCCNS(=O)(=O)c2cccc3c2CC(C(=O)O)C3)ccc(C(C)=O)c1O (stereo not drawn) [Example 11, 4-(N-(2-(4-Acetyl-3-hydroxy-2-propylphenoxy)ethyl)sulfamoyl)-2,3-dihydro-1H-indene-2-carboxylic acid] | > 100 | < 5 | < 5

Now from value to compound:

Row | EC50 [1] [µM] | EC50 [2] [µM] | EC50 [3] [µM] | SMILES
12 | 5 to 100 | 5 to 100 | 5 to 100 | CCCc1c(OCCNS(=O)(=O)c2ccc3c(c2)CC(C(=O)O)C3)ccc(C(C)=O)c1O (stereo not drawn) [Example 12, 5-(N-(2-(4-Acetyl-3-hydroxy-2-propylphenoxy)ethyl)sulfamoyl)-2,3-dihydro-1H-indene-2-carboxylic acid]
13 | > 100 | 5 to 100 | > 100 | CCCc1c(OCCN(C)S(=O)(=O)c2ccc3c(c2)CC(C(=O)O)C3)ccc(C(C)=O)c1O (stereo not drawn) [Example 13]
14 | < 5 | < 5 | < 5 | CCCc1c(OCCN(C)S(=O)(=O)c2cccc3c2CC(C(=O)O)C3)ccc2c(C(F)(F)F)noc12 (stereo not drawn) [Example 14, 4-(N-methyl-N-(2-(7-propyl-3-(trifluoromethyl)benzo[d]isoxazol-6-yloxy)ethyl)sulfamoyl)-2,3-dihydro-1H-indene-2-carboxylic acid]
15 | > 100 | > 100 | < 5 | Cc1ccc(C(=NOCCN(C)S(=O)(=O)c2cccc3c2CC(C(=O)O)C3)c2ccc(C)cc2)cc1 (stereo not drawn) [Example 15, 4-(N-(2-(di-p-tolylmethyleneaminooxy)ethyl)-N-methylsulfamoyl)-2,3-dihydro-1H-indene-2-carboxylic acid]
16 | < 5 | < 5 | < 5 | Cc1ccc(S(=O)(=O)N(C)CCON=C(c2ccc(C(F)(F)F)cc2)c2ccc(C(F)(F)F)cc2)cc1CC(=O)O [Example 16]
17 | > 100 | < 5 | < 5 | CN(CCON=C(c1ccc(C(F)(F)F)cc1)c1ccc(C(F)(F)F)cc1)S(=O)(=O)c1cccc2c1CC(C(=O)O)C2 (stereo not drawn) [Example 18, 4-(N-(2-(bis(4-(trifluoromethyl)phenyl)methyleneaminooxy)ethyl)-N-methylsulfamoyl)-2,3-dihydro-1H-indene-2-carboxylic acid]
18 | > 100 | < 5 | < 5 | CN(CCON=C(c1ccc(OC(F)(F)F)cc1)c1ccc(OC(F)(F)F)cc1)S(=O)(=O)c1cccc2c1CC(C(=O)O)C2 (stereo not drawn) [Example 19, 4-(N-(2-(bis(4-(trifluoromethoxy)phenyl)methyleneaminooxy)ethyl)-N-methylsulfamoyl)-2,3-dihydro-1H-indene-2-carboxylic acid]
19 | < 5 | < 5 | < 5 | Cc1ccc(C(=NOCCN(C)S(=O)(=O)c2ccc(C)c(CC(=O)O)c2)c2ccc(C)cc2)cc1 [Example 20]
